According to ChEMBL document CHEMBL1201862, “PubChem BioAssay data set” (2004):
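Cultured in 96-well plates, cells were exposed to test compound for 48 hours across five concentrations. The concentration for 50% growth inhibition is given as GI50.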 The source made the active and inactive calls. Rule as the data show it: active = GI50 up to about 1.1 µM and inactive = higher.

Experiments:
Assay in all cases: NCI-60 cell line screen, 48 h
MCF7 = system: MCF7
Hs-578T = system: Hs-578T
HOP-62 = system: HOP-62
HT-29 = system: HT-29
SW-620 = system: SW-620
OVCAR-4 = system: OVCAR-4
UACC-62 = system: UACC-62
LOX IMVI = system: LOX IMVI
RXF 393 = system: RXF 393
A498 = system: A498
MDA-MB-231 = system: MDA-MB-231
RPMI-8226 = system: RPMI-8226
NCI-H522 = system: NCI-H522
K562 = system: K562
TK-10 = system: TK-10
SF-295 = system: SF-295
NCI-H460 = system: NCI-H460
DU-145 = system: DU-145
SF-268 = system: SF-268
U-251 = system: U-251
MOLT-4 = system: MOLT-4
SK-MEL-5 = system: SK-MEL-5
Malme-3M = system: Malme-3M
SK-MEL-2 = system: SK-MEL-2
IGROV-1 = system: IGROV-1
786-0 = system: 786-0
CCRF-CEM = system: CCRF-CEM
BT-549 = system: BT-549
MDA-N = system: MDA-N
T47D = system: T47D
HCT-15 = system: HCT-15
SNB-19 = system: SNB-19
SR = system: SR
CAKI-1 = system: CAKI-1
UO-31 = system: UO-31
KM12 = system: KM12
EKVX = system: EKVX
NCI/ADR-RES = system: NCI/ADR-RES
OVCAR-8 = system: OVCAR-8
A549 = system: A549
OVCAR-5 = system: OVCAR-5
MDA-MB-435 = system: MDA-MB-435
HCC 2998 = system: HCC 2998
SK-OV-3 = system: SK-OV-3
PC-3 = system: PC-3
M14 = system: M14
NCI-H226 = system: NCI-H226
HOP-92 = system: HOP-92
COLO 205 = system: COLO 205
SN12C = system: SN12C
UACC-257 = system: UACC-257
HCT-116 = system: HCT-116
HL-60 = system: HL-60
ACHN = system: ACHN
SK-MEL-28 = system: SK-MEL-28
NCI-H23 = system: NCI-H23
SNB-75 = system: SNB-75
SF-539 = system: SF-539
OVCAR-3 = system: OVCAR-3

CC1=NN=C(N)N/C1=C\C(Sc1ccc(Cl)cc1)c1ccc([N+](=O)[O-])cc1 (stereo not drawn)
GI50 (MCF7): 57.9 µM (inactive)
GI50 (Hs-578T): > 100 µM (inactive)
GI50 (HOP-62): > 100 µM (inactive)
GI50 (HT-29): > 100 µM (inactive)
GI50 (SW-620): 85.3 µM (inactive)
GI50 (OVCAR-4): > 100 µM (inactive)
GI50 (UACC-62): 91.6 µM (inactive)
GI50 (LOX IMVI): 51.8 µM (inactive)
GI50 (RXF 393): > 100 µM (inactive)
GI50 (A498): > 100 µM (inactive)
GI50 (MDA-MB-231): > 100 µM (inactive)
GI50 (RPMI-8226): 35.6 µM (inactive)
GI50 (NCI-H522): 26.9 µM (inactive)
GI50 (K562): 62.4 µM (inactive)
GI50 (TK-10): > 100 µM (inactive)
GI50 (SF-295): > 100 µM (inactive)
GI50 (NCI-H460): > 100 µM (inactive)
GI50 (DU-145): > 100 µM (inactive)
GI50 (SF-268): 47.4 µM (inactive)
GI50 (U-251): 66.7 µM (inactive)
GI50 (MOLT-4): 93.5 µM (inactive)
GI50 (SK-MEL-5): 74.5 µM (inactive)
GI50 (Malme-3M): > 100 µM (inactive)
GI50 (SK-MEL-2): > 100 µM (inactive)
GI50 (IGROV-1): 39.1 µM (inactive)
GI50 (786-0): 38.1 µM (inactive)
GI50 (CCRF-CEM): 27.5 µM (inactive)
GI50 (BT-549): 80 µM (inactive)
GI50 (MDA-N): 89.1 µM (inactive)
GI50 (T47D): > 100 µM (inactive)
GI50 (HCT-15): 94 µM
GI50 (SNB-19): > 100 µM (inactive)
GI50 (SR): > 100 µM (inactive)
GI50 (CAKI-1): > 100 µM (inactive)
GI50 (UO-31): 28.3 µM (inactive)
GI50 (KM12): 94 µM (inactive)
GI50 (EKVX): 71.8 µM (inactive)
GI50 (NCI/ADR-RES): > 100 µM (inactive)
GI50 (OVCAR-8): > 100 µM (inactive)
GI50 (A549): > 100 µM (inactive)
GI50 (OVCAR-5): > 100 µM (inactive)
GI50 (MDA-MB-435): 83.9 µM (inactive)
GI50 (HCC 2998): > 100 µM (inactive)
GI50 (SK-OV-3): > 100 µM (inactive)
GI50 (PC-3): 66.7 µM (inactive)
GI50 (M14): 62.1 µM (inactive)
GI50 (NCI-H226): 20.8 µM (inactive)
GI50 (HOP-92): > 100 µM (inactive)
GI50 (COLO 205): > 100 µM (inactive)
GI50 (SN12C): 81.1 µM (inactive)
GI50 (UACC-257): 91.4 µM (inactive)
GI50 (HCT-116): 39.8 µM (inactive)
GI50 (HL-60): 32.8 µM (inactive)
GI50 (ACHN): 58.9 µM (inactive)
GI50 (SK-MEL-28): > 100 µM (inactive)
GI50 (NCI-H23): 80.9 µM (inactive)

FC(F)(F)c1ccc2c(c1)nc(-c1ccc(Cl)cc1)n2CC1CCCN2CCCCC12 (stereo not drawn)
GI50 (MCF7): 14.5 µM (inactive)
GI50 (Hs-578T): 14 µM (inactive)
GI50 (HOP-62): 13.9 µM (inactive)
GI50 (HT-29): 4.98 µM (inactive)
GI50 (SW-620): 18.5 µM (inactive)
GI50 (OVCAR-4): 15.8 µM (inactive)
GI50 (UACC-62): 14.8 µM (inactive)
GI50 (SNB-75): 6.84 µM (inactive)
GI50 (LOX IMVI): 14.3 µM (inactive)
GI50 (RXF 393): 13.9 µM (inactive)
GI50 (A498): 14.2 µM (inactive)
GI50 (MDA-MB-231): 7.33 µM (inactive)
GI50 (NCI-H522): 13.2 µM (inactive)
GI50 (TK-10): 14.9 µM (inactive)
GI50 (SF-295): 16.7 µM (inactive)
GI50 (NCI-H460): 16.6 µM (inactive)
GI50 (DU-145): 14.9 µM (inactive)
GI50 (SF-268): 14 µM (inactive)
GI50 (U-251): 14.2 µM (inactive)
GI50 (MOLT-4): 0.233 µM (active)
GI50 (SF-539): 14.8 µM (inactive)
GI50 (SK-MEL-5): 14 µM (inactive)
GI50 (Malme-3M): 15.3 µM (inactive)
GI50 (SK-MEL-2): 15.9 µM (inactive)
GI50 (IGROV-1): 14.4 µM (inactive)
GI50 (786-0): 13.8 µM (inactive)
GI50 (CCRF-CEM): 10.8 µM (inactive)
GI50 (BT-549): 14.4 µM (inactive)
GI50 (MDA-N): 15.7 µM (inactive)
GI50 (T47D): 16.7 µM (inactive)
GI50 (HCT-15): 14.4 µM
GI50 (SNB-19): 17.1 µM (inactive)
GI50 (SR): 11.9 µM (inactive)
GI50 (CAKI-1): 17.1 µM (inactive)
GI50 (UO-31): 10.7 µM (inactive)
GI50 (KM12): 15.8 µM (inactive)
GI50 (EKVX): 9.91 µM (inactive)
GI50 (NCI/ADR-RES): 14.8 µM (inactive)
GI50 (OVCAR-8): 15.6 µM (inactive)
GI50 (A549): 14.8 µM (inactive)
GI50 (OVCAR-5): 6.41 µM (inactive)
GI50 (MDA-MB-435): 16.9 µM (inactive)
GI50 (HCC 2998): 13.5 µM (inactive)
GI50 (SK-OV-3): 6.7 µM (inactive)
GI50 (PC-3): 11.6 µM (inactive)
GI50 (M14): 14 µM (inactive)
GI50 (NCI-H226): 14.8 µM (inactive)
GI50 (HOP-92): 12.8 µM (inactive)
GI50 (COLO 205): 11.6 µM (inactive)
GI50 (SN12C): 12.9 µM (inactive)
GI50 (OVCAR-3): 18.4 µM (inactive)
GI50 (UACC-257): 14.9 µM (inactive)
GI50 (HCT-116): 14.3 µM (inactive)
GI50 (HL-60): 11.8 µM (inactive)
GI50 (ACHN): 14.8 µM (inactive)
GI50 (SK-MEL-28): 14.9 µM (inactive)

Cc1c(-c2ccccc2)cc(O)c2nc3ccccc3n12
GI50 (MCF7): 57.9 µM (inactive)
GI50 (Hs-578T): 55.1 µM (inactive)
GI50 (HOP-62): 21.1 µM (inactive)
GI50 (HT-29): > 100 µM (inactive)
GI50 (SW-620): 20.7 µM (inactive)
GI50 (OVCAR-4): 9.68 µM (inactive)
GI50 (UACC-62): 11 µM (inactive)
GI50 (SNB-75): 7.4 µM (inactive)
GI50 (LOX IMVI): 4.99 µM (inactive)
GI50 (RXF 393): 83.6 µM (inactive)
GI50 (A498): > 100 µM (inactive)
GI50 (MDA-MB-231): 5.61 µM (inactive)
GI50 (RPMI-8226): 7.43 µM (inactive)
GI50 (NCI-H522): 20.4 µM (inactive)
GI50 (K562): 5.82 µM (inactive)
GI50 (TK-10): > 100 µM (inactive)
GI50 (SF-295): 49.8 µM (inactive)
GI50 (NCI-H460): 6.31 µM (inactive)
GI50 (DU-145): > 100 µM (inactive)
GI50 (SF-268): > 10 µM (inactive)
GI50 (U-251): 6.75 µM (inactive)
GI50 (MOLT-4): 8.28 µM (inactive)
GI50 (SF-539): > 100 µM (inactive)
GI50 (SK-MEL-5): 44 µM (inactive)
GI50 (Malme-3M): > 100 µM (inactive)
GI50 (IGROV-1): 39.5 µM (inactive)
GI50 (786-0): 29 µM (inactive)
GI50 (CCRF-CEM): 17 µM (inactive)
GI50 (BT-549): 12.6 µM (inactive)
GI50 (MDA-N): 46.8 µM (inactive)
GI50 (T47D): > 100 µM (inactive)
GI50 (HCT-15): 6.32 µM
GI50 (SNB-19): 96.8 µM (inactive)
GI50 (SR): 7.06 µM (inactive)
GI50 (CAKI-1): 74.1 µM (inactive)
GI50 (UO-31): 9.25 µM (inactive)
GI50 (KM12): 15.6 µM (inactive)
GI50 (EKVX): > 100 µM (inactive)
GI50 (NCI/ADR-RES): 7 µM (inactive)
GI50 (OVCAR-8): > 100 µM (inactive)
GI50 (A549): 14.5 µM (inactive)
GI50 (OVCAR-5): > 100 µM (inactive)
GI50 (MDA-MB-435): 13.7 µM (inactive)
GI50 (HCC 2998): 17.8 µM (inactive)
GI50 (PC-3): 31.7 µM (inactive)
GI50 (M14): > 100 µM (inactive)
GI50 (NCI-H226): > 100 µM (inactive)
GI50 (HOP-92): 10.2 µM (inactive)
GI50 (COLO 205): > 100 µM (inactive)
GI50 (SN12C): > 100 µM (inactive)
GI50 (OVCAR-3): > 100 µM (inactive)
GI50 (UACC-257): > 100 µM (inactive)
GI50 (HL-60): 4.97 µM (inactive)
GI50 (ACHN): 21.6 µM (inactive)
GI50 (SK-MEL-28): > 100 µM (inactive)
GI50 (NCI-H23): > 100 µM (inactive)
